Measured values as given in US8133687B2, “Labor biomarkers, methods comprising same, and methods targeting same” (The Trustees of the University of Pennsylvania, priority 2005, dated 2012).
Read-outs that look alike come from different tables or passages of the source. Where no end group is shown, it is not given here.

Tested on: rat aorta-derived A7R5 vascular smooth muscle cells
Format: cell-based
Details: for effect on bradykinin response (cell area): added together with 5 nM bradykinin; for effect on cell area when administered without bradykinin: peptide alone; for effect on PGF2α-induced decrease in cell area: with PGF2α (0.56 nM PG in FIG. 10); for effect on oxytocin-induced decrease in cell area: with oxytocin (10 nM OT in FIG. 10)
Protocol: PA gels of controlled stiffness were coated with a nearly constant collagen level (5×10^2 ng/cm^2) as assessed by fluorescent collagen intensities. […] To assess the ability of peptides found in cervicovaginal fluid to activate smooth muscle cells, rat aorta-derived […] vascular smooth muscle cells ([…]; ATCC, Manassas, Va.) were plated onto polyacrylamide gel surfaces (34 kPa) with collagen type 1 (BD Biosciences, San Diego) and covalently pre-attached to the gel surface by sulpho-SANPAH (Pierce, Rockland, Ill.), providing a quantitative and reproducible uterotonics activity assay. Cells were permitted to adhere to the surface for 30 minutes, then were incubated at 37° C. for 4 hours with bradykinin (0-1 μM, Sigma-Aldrich, St. […] Data was fit to a hyperbolic expression using a least squared method, with the half-saturation constant (IC50) representing the intermediate set-point for the system.

[1] = agonist alone, A7R5 cells, 4 hours at 37° C., read-out: IC50 of dose-dependent decrease in cell area
[2] = A7R5 cells, listed as potentiation peptide (PP)

## CC[C@H](C)[C@@H]1NC(=O)[C@H](Cc2ccc(O)cc2)NC(=O)[C@@H](N)CSSC[C@@H](C(=O)N2CCC[C@H]2C(=O)N[C@@H](CC(C)C)C(=O)NCC(N)=O)NC(=O)[C@H](CC(N)=O)NC(=O)[C@H](CCC(N)=O)NC1=O [Oxytocin, oxytocin, reference compound]
4 h
  IC50: 8 nM

## CCCCC[C@H](O)/C=C/[C@@H]1[C@@H](C/C=C\CCCC(=O)O)[C@@H](O)C[C@H]1O [PGF2α, reference compound]
Agonist alone, A7R5 cells, 4 hours at 37° C., listed as PGF2-α, read-out: IC50 of dose-dependent decrease in cell area
  IC50: 0.56 nM
[1]
  IC50: 1 nM

## AAHLPAEFTPAVHASLDKF [2.022 kDa peptide, amino acids 110-128 of α-chain hemoglobin]
A7R5 cells
  effect on bradykinin response (cell area): augmented the bradykinin response
  effect on cell area when administered without bradykinin: Neither the 2.022 kDa peptide nor the control peptide had an effect on cell area
  effect on PGF2α-induced decrease in cell area: enhanced by sub-μM amounts
  effect on oxytocin-induced decrease in cell area: enhanced by sub-μM amounts
[2]
  effect on bradykinin response (cell area): augmented the 5 nM BK response
  effect on PGF2α-induced decrease in cell area: augmented the 0.56 nM PG response
  effect on oxytocin-induced decrease in cell area: augmented the 10 nM OT response
Bradykinin 1 μM, A7R5 cells
  effect on decrease in cell area elicited by maximal doses of bradykinin: not affected
With half-saturation dose of bradykinin (5 nM), A7R5 cells, read-out: half-saturation effect of the peptide on the bradykinin response
  EC50: 9350 nM

## KAHEFYLAAHPTDALFASP (KAHEFYLAAHPTDALFASP-NH2) [control peptide, same amino acids as the 2.022 kDa peptide, residues ordered randomly, reference compound]
A7R5 cells
  effect on bradykinin response (cell area): did not affect the bradykinin response
  effect on cell area when administered without bradykinin: Neither the 2.022 kDa peptide nor the control peptide had an effect on cell area

## RPPGFSPFR [Bradykinin, bradykinin, reference compound]
[1]
  IC50: 5 nM
